Results taken from patent US7517874B2 (priority 2007, dated 2009).
pEC50: −log10 of the molar value. Where two headings read alike, the source gives them in different places.

Legend:
[1] = biological target: human CB1 receptor (hCB1) (Homo sapiens, UniProt P21554); test: cell-based; format: cell-based; details: for +/− HCB1: agonist or inverse agonist at hCB1
In short: (§1)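 Readout: LANCE TR-FRET cAMP, back-calculated from a concurrent standard curve and scaled between forskolin-only and forskolin + 1 μM CP55,940 wells. EC50 and intrinsic activity came from four-parameter fits.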

rat CB2 receptor (rCB2) = biological target: T1, rat CB2 receptor (rCB2) (Rattus norvegicus, UniProt Q9QZN9); test: cell-based; format: cell-based; details: agonist or inverse agonist at rCB2
T1 sequence (Q9QZN9 1-360): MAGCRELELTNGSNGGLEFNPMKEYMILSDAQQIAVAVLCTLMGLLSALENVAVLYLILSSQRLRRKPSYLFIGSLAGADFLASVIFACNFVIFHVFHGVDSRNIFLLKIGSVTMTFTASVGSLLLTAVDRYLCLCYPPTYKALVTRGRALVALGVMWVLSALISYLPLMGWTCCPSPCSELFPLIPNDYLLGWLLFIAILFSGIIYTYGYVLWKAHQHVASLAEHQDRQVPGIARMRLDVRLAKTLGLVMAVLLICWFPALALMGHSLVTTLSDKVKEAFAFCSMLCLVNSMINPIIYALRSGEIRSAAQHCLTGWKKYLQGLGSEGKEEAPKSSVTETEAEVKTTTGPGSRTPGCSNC
In short: as §1

human CB1 receptor (hCB1), sequence (P21554 whole entry): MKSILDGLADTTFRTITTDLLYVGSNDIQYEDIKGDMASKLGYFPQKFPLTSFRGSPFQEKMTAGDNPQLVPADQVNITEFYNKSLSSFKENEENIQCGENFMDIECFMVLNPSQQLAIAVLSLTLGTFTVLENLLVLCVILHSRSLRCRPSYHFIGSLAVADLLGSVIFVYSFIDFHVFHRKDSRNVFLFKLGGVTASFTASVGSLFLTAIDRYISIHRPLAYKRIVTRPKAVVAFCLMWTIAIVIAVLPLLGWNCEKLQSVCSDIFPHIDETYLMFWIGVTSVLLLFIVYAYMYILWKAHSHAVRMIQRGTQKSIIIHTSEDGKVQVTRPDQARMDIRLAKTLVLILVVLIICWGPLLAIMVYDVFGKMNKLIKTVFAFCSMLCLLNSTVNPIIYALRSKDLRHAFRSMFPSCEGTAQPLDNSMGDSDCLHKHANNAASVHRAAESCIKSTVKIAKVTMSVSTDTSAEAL

Row | Compound | pEC50 [1] | +/− RCB2 (rat CB2 receptor (rCB2)) | +/− HCB1 [1] | EC50 ([1]; groups >100 nM-10 μM and >10 μM, cAMP, CHO-K1 hCB1, read-out: EC50 HCB1) [nM]
1 | Cc1ccc(-c2nc(C(=O)N[C@H](c3nc(C)no3)C(C)(C)C)c3n2CCCN(C(C)C)C3)c(F)c1 [Compound 523, (S)-N-(2,2-dimethyl-1-(3-methyl-1,2,4-oxadiazol-5-yl)propyl)-3-(2-fluoro-4-methylphenyl)-8-isopropyl-6,7,8,9-tetrahydro-5H-imidazo[1,5-a][1,4]diazepine-1-carboxamide] | < 5.00 | − |  | 
2 | CCN1CCCn2c(-c3ccccc3)nc(C(=O)N[C@H](c3nc(C)no3)C(C)(C)C)c2C1 [Compound 524, (S)-N-(2,2-dimethyl-1-(3-methyl-1,2,4-oxadiazol-5-yl)propyl)-8-ethyl-3-phenyl-6,7,8,9-tetrahydro-5H-imidazo[1,5-a][1,4]diazepine-1-carboxamide] | < 5.00 | − |  | 
3 | Cc1noc([C@@H](NC(=O)c2nc(-c3ccccc3)n3c2CN(C(C)C)CCC3)C(C)(C)C)n1 [Compound 525, (S)-N-(2,2-dimethyl-1-(3-methyl-1,2,4-oxadiazol-5-yl)propyl)-8-isopropyl-3-phenyl-6,7,8,9-tetrahydro-5H-imidazo[1,5-a][1,4]diazepine-1-carboxamide] | < 5.00 | − |  | 
4 | CNC(=O)[C@@H](NC(=O)c1nc(-c2ccc(Cl)cc2F)n2c1CN(C1CCN(C(C)=O)CC1)CCC2)C(C)(C)C [Compound 527, (S)-8-(1-acetylpiperidin-4-yl)-3-(4-chloro-2-fluorophenyl)-N-(3 3-dimethyl-1-(methylamino)-1-oxobutan-2-yl)-6,7,8,9-tetrahydro-5H-imidazo[1,5-a][1,4]diazepine-1-carboxamide] | < 5.00 | − |  | 
5 | CNC(=O)[C@@H](NC(=O)c1nc(C2CCC(F)(F)CC2)n2c1CN(C)CCC2)C(C)(C)C [Compound 528, (S)-3-(4,4-difluorocyclohexyl)-N-(3,3-dimethyl-1-(methylamino)-1-oxobutan-2-yl)-8-methyl-6,7,8,9-tetrahydro-5H-imidazo[1,5-a][1,4]diazepine-1-carboxamide] | < 5.00 | + |  | 
6 | CNC(=O)[C@H](CC(C)C)NC(=O)c1nc(-c2ccc(Cl)cc2F)n2c1CN(C)CCC2 [Compound 529, (S)-3-(4-chloro-2-fluorophenyl)-8-methyl-N-(4-methyl-1-(methylamino)-1-oxopentan-2-yl)-6,7,8,9-tetrahydro-5H-imidazo[1,5-a][1,4]diazepine-1-carboxamide] | < 5.00 | + |  | 
7 | CNC(=O)[C@H](CC(C)C)NC(=O)c1nc(-c2ccc(F)cc2)n2c1CN(C)CCC2 [Compound 530, (S)-3-(4-fluorophenyl)-8-methyl-N-(4-methyl-1-(methylamino)-1-oxopentan-2-yl)-6,7,8,9-tetrahydro-5H-imidazo[1,5-a][1,4]diazepine-1-carboxamide] | < 5.00 | + |  | 
8 | CNC(=O)[C@H](CC(C)C)NC(=O)c1nc(-c2cccc(F)c2)n2c1CN(C)CCC2 [Compound 531, (S)-3-(3-fluorophenyl)-8-methyl-N-(4-methyl-1-(methylamino)-1-oxopentan-2-yl)-6,7,8,9-tetrahydro-5H-imidazo[1,5-a][1,4]diazepine-1-carboxamide] | < 5.00 | + |  | 
9 | CNC(=O)[C@H](CC(C)C)NC(=O)c1nc(-c2cc(F)ccc2F)n2c1CN(C)CCC2 [Compound 532, (S)-3-(2,5-difluorophenyl)-8-methyl-N-(4-methyl-1-(methylamino)-1-oxopentan-2-yl)-6,7,8,9-tetrahydro-5H-imidazo[1,5-a][1,4]diazepine-1-carboxamide] | < 5.00 | − |  | 
10 | CNC(=O)[C@H](CC(C)C)NC(=O)c1nc(-c2ccc(C(F)(F)F)cc2F)n2c1CN(C)CCC2 [Compound 533, (S)-3-(2-fluoro-4-(trifluoromethyl)phenyl)-8-methyl-N-(4-methyl-1-(methylamino)-1-oxopentan-2-yl)-6,7,8,9-tetrahydro-5H-imidazo[1,5-a][1,4]diazepine-1-carboxamide] | < 5.00 | + |  | 
11 | CNC(=O)[C@H](CC(C)C)NC(=O)c1nc(-c2ccc(F)cc2F)n2c1CN(C)CCC2 [Compound 534, (S)-3-(2,4-difluorophenyl)-8-methyl-N-(4-methyl-1-(methylamino)-1-oxopentan-2-yl)-6,7,8,9-tetrahydro-5H-imidazo[1,5-a][1,4]diazepine-1-carboxamide] | < 5.00 | + |  | 
12 | CNC(=O)[C@H](CC(C)C)NC(=O)c1nc(-c2ccc(F)c(F)c2)n2c1CN(C)CCC2 [Compound 535, (S)-3-(3,4-difluorophenyl)-8-methyl-N-(4-methyl-1-(methylamino)-1-oxopentan-2-yl)-6,7,8,9-tetrahydro-5H-imidazo[1,5-a][1,4]diazepine-1-carboxamide] | < 5.00 | + |  | 
13 | CNC(=O)[C@H](CC(C)C)NC(=O)c1nc(-c2cc(Cl)ccc2F)n2c1CN(C)CCC2 [Compound 536, (S)-3-(5-chloro-2-fluorophenyl)-8-methyl-N-(4-methyl-1-(methylamino)-1-oxopentan-2-yl)-6,7,8,9-tetrahydro-5H-imidazo[1,5-a][1,4]diazepine-1-carboxamide] | < 5.00 | + |  | 
14 | CNC(=O)[C@H](CC(C)C)NC(=O)c1nc(-c2ccc(F)c(Cl)c2)n2c1CN(C)CCC2 [Compound 537, (S)-3-(3-chloro-4-fluorophenyl)-8-methyl-N-(4-methyl-1-(methylamino)-1-oxopentan-2-yl)-6,7,8,9-tetrahydro-5H-imidazo[1,5-a][1,4]diazepine-1-carboxamide] | < 5.00 | + |  | 
15 | CNC(=O)[C@H](CC(C)C)NC(=O)c1nc(-c2cc(F)c(F)cc2F)n2c1CN(C)CCC2 [Compound 538] |  | + | + | 
16 | CNC(=O)[C@H](CC(C)C)NC(=O)c1nc(-c2cc(Cl)c(F)cc2F)n2c1CN(C)CCC2 [Compound 539, (S)-3-(5-chloro-2,4-difluorophenyl)-8-methyl-N-(4-methyl-1-(methylamino)-1-oxopentan-2-yl)-6,7,8,9-tetrahydro-5H-imidazo[1,5-a][1,4]diazepine-1-carboxamide] |  | + | + | 
17 | CNC(=O)[C@H](CC(C)C)NC(=O)c1nc(C2CCCCC2)n2c1CN(C)CCC2 [Compound 540, (S)-3-cyclohexyl-8-methyl-N-(4-methyl1-1-(methylamino)-1-oxopentan-2-yl)-6,7,8,9-tetrahydro-5H-imidazo[1,5-a][1,4]diazepine-1-carboxamide] |  | + |  | > 10000
18 | CNC(=O)[C@@H](NC(=O)c1nc(-c2cc(F)c(F)cc2F)n2c1CN(C)CCC2)C1CCCCC1 [Compound 541, (S)-N-(1-cyclohexyl-2-(methylamino)-2-oxoethyl)-8-methyl-3-(2,4,5-trifluorophenyl)-6,7,8,9-tetrahydro-5H-imidazo[1,5-a][1,4]diazepine-1-carboxamide] |  | + | + | 
19 | CNC(=O)[C@@H](NC(=O)c1nc(-c2cc(Cl)c(F)cc2F)n2c1CN(C)CCC2)C1CCCCC1 [Compound 542, (S)-3-(5-chloro-2,4-difluorophenyl)-N-(1-cyclohexyl-2-(methylamino)-2-oxoethyl)-8-mehtyl-6,7,8,9-tetrahydro-5H-imidazo[1,5-a][1,4]diazepine-1-carboxamide] |  | + | + | 
20 | CNC(=O)[C@@H](NC(=O)c1nc(-c2ccccc2)n2c1CN(C)CCC2)c1ccccc1 [Compound 543, (S)-8-methyl-N-(2-(methylamino)-2-oxo-1-phenylethyl)-3-phenyl-6,7,8,9-tetrahydro-5H-imidazo[1,5-a][1,4]diazepine-1-carboxamide] | < 5.00 | + |  | 
21 | CNC(=O)[C@H](CC(C)(C)C)NC(=O)c1nc(-c2ccc(Cl)cc2F)n2c1CN(C)CCC2 [Compound 544, (S)-3-(4-chloro-2-fluorophenyl)-N-(4,4-dimethyl-1-(methylamino)-1-oxopentan-2-yl)-8-methyl-6,7,8,9-tetrahydro-5H-imidazo[1,5-a][1,4]diazepine-1-carboxamide] |  | + | + | 
22 | CNC(=O)[C@H](CC(C)(C)C)NC(=O)c1nc(-c2cc(Cl)ccc2F)n2c1CN(C)CCC2 [Compound 545, (S)-3-(5-chloro-2-fluorophenyl)-N-(4,4-dimethyl-1-(methylamino)-1-oxopentan-2-yl)-8-methyl-6,7,8,9-tetrahydro-5H-imidazo[1,5-a][1,4]diazepine-1-carboxamide] |  | + | + | 
